Results reported in patent US12077503B2, “Substituted cyclic amides and their use as herbicides” (FMC CORPORATION, priority 2015, dated 2024).

Experiments:
Format in all cases: in vivo
[1] = tested on: Kochia (Kochia scoparia); test: Test A preemergence; details: Preemergence; for Plant response rating, Kochia: 125 g ai/ha, visual injury after approximately 10 d, 0 to 100 scale where 0 is no effect and 100 is complete control; for Kochia plant response rating (0 to 100 scale, 0 is no effect, 100 is complete control): 500 g ai/ha, visual injury approx. 10 d
From the text: (§1) Seeds of plant species selected from barnyardgrass (Echinochloa crus-galli), Kochia (Kochia scoparia), ragweed (common ragweed, Ambrosia elatior), ryegrass, Italian (Italian ryegrass, Lolium multiflorum), crabgrass, large (Digitaria sanguinalis), giant foxtail (Setaria faberii), green foxtail (Setaria viridis), morningglory (Ipomoea spp.), pigweed (Amaranthus retroflexus), velvetleaf (Abutilon theophrasti), wheat (Triticum aestivum), and corn (Zea mays) were planted into a blend of loam soil and sand and treated preemergence with a directed soil spray using test chemicals formulated in anon-phytotoxic solvent mixture which included a surfactant.
(§2) At the same time, plants selected from these crop and weed species and also blackgrass (Alopecurus myosuroides), and Galium (catchweed bedstraw, Galium aparine) were planted in pots containing the same blend of loam soil and sand and treated with postemergence applications of test chemicals formulated in the same manner. Plants ranged in height from 2 to 10 cm and were in the one- to two-leaf stage for the postemergence treatment. Treated plants and untreated controls were maintained in a greenhouse for approximately 10 d, after which time all treated plants were compared to untreated controls and visually evaluated for injury. Plant response ratings, summarized in Table A, are based on a 0 to 100 scale where 0 is no effect and 100 is complete control. A dash (-) response means no test result.

[2] = tested on: barnyardgrass (Echinochloa crus-galli); test: Test A preemergence; details: Preemergence; for Plant response rating, Barnyardgrass: 125 g ai/ha, visual injury after approximately 10 d, 0 to 100 scale where 0 is no effect and 100 is complete control; for Barnyardgrass plant response rating (0 to 100 scale, 0 is no effect, 100 is complete control): 500 g ai/ha, visual injury approx. 10 d
From the text: as §1, §2

[3] = tested on: giant foxtail (Setaria faberii); test: Test A preemergence; details: Preemergence; for Plant response rating, Foxtail, Giant: 125 g ai/ha, visual injury after approximately 10 d, 0 to 100 scale where 0 is no effect and 100 is complete control; for Foxtail, Giant plant response rating (0 to 100 scale, 0 is no effect, 100 is complete control): 500 g ai/ha, visual injury approx. 10 d
From the text: as §1, §2

[4] = tested on: pigweed (Amaranthus retroflexus); test: Test A preemergence; details: Preemergence; for Plant response rating, Pigweed: 125 g ai/ha, visual injury after approximately 10 d, 0 to 100 scale where 0 is no effect and 100 is complete control; for Pigweed plant response rating (0 to 100 scale, 0 is no effect, 100 is complete control): 500 g ai/ha, visual injury approx. 10 d
From the text: as §1, §2

[5] = tested on: ragweed (common ragweed, Ambrosia elatior); test: Test A preemergence; details: Preemergence; for Plant response rating, Ragweed: 125 g ai/ha, visual injury after approximately 10 d, 0 to 100 scale where 0 is no effect and 100 is complete control; for Ragweed plant response rating (0 to 100 scale, 0 is no effect, 100 is complete control): 500 g ai/ha, visual injury approx. 10 d
From the text: as §1, §2

[6] = tested on: ryegrass, Italian (Italian ryegrass, Lolium multiflorum); test: Test A preemergence; details: Preemergence; for Plant response rating, Ryegrass, Italian: 125 g ai/ha, visual injury after approximately 10 d, 0 to 100 scale where 0 is no effect and 100 is complete control; for Ryegrass, Italian plant response rating (0 to 100 scale, 0 is no effect, 100 is complete control): 500 g ai/ha, visual injury approx. 10 d
From the text: as §1, §2

[7] = tested on: Galium (catchweed bedstraw, Galium aparine); test: Test A postemergence
From the text: as §1, §2

[8] = tested on: Kochia (Kochia scoparia); test: Test A postemergence
From the text: as §1, §2

[9] = tested on: barnyardgrass (Echinochloa crus-galli); test: Test A postemergence
From the text: as §1, §2

[10] = tested on: blackgrass (Alopecurus myosuroides); test: Test A postemergence
From the text: as §1, §2

[11] = tested on: corn (Zea mays); test: Test A postemergence
From the text: as §1, §2

[12] = tested on: giant foxtail (Setaria faberii); test: Test A postemergence
From the text: as §1, §2

[13] = tested on: pigweed (Amaranthus retroflexus); test: Test A postemergence
From the text: as §1, §2

[14] = tested on: ragweed (common ragweed, Ambrosia elatior); test: Test A postemergence
From the text: as §1, §2

[15] = tested on: ryegrass, Italian (Italian ryegrass, Lolium multiflorum); test: Test A postemergence
From the text: as §1, §2

[16] = tested on: wheat (Triticum aestivum); test: Test A postemergence
From the text: as §1, §2

[17] = 125 g ai/ha, postemergence, visual rating after approx. 10 d, 0 to 100 scale (0 no effect, 100 complete control)
[18] = Postemergence, 500 g ai/ha, 0 to 100 scale where 0 is no effect and 100 is complete control

| SMILES | Plant response rating, Kochia [1] | Kochia plant response rating (0 to 100 scale, 0 is no effect, 100 is complete control) [1] | Plant response rating, Barnyardgrass [2] | Barnyardgrass plant response rating (0 to 100 scale, 0 is no effect, 100 is complete control) [2] | Plant response rating, Foxtail, Giant [3] | Foxtail, Giant plant response rating (0 to 100 scale, 0 is no effect, 100 is complete control) [3] | Plant response rating, Pigweed [4] | Pigweed plant response rating (0 to 100 scale, 0 is no effect, 100 is complete control) [4] | Plant response rating, Ragweed [5] | Ragweed plant response rating (0 to 100 scale, 0 is no effect, 100 is complete control) [5] | Plant response rating, Ryegrass, Italian [6] | Ryegrass, Italian plant response rating (0 to 100 scale, 0 is no effect, 100 is complete control) [6] | Plant response rating, Galium [7, 17] | Plant response rating, Galium [7, 18] | Plant response rating, Kochia [8, 17] | Plant response rating, Kochia [8, 18] | Plant response rating, Barnyardgrass [9, 17] | Plant response rating, Barnyardgrass [9, 18] | Plant response rating, Blackgrass [10, 17] | Plant response rating, Blackgrass [10, 18] | also measured |
| --- | --- | --- | --- | --- | --- | --- | --- | --- | --- | --- | --- | --- | --- | --- | --- | --- | --- | --- | --- | --- | --- |
| Cc1ccc(C2CN(C)C(=O)C2C(=O)Nc2ccccc2F)c(F)c1 (stereo not shown) [Compound 560] | 60 | 80 | 90 | 100 | 100 | 100 | 0 | 40 | 0 | 0 | 0 | 70 | 40 | 60 | 40 | 80 | 90 | 100 | 30 | 50 | Plant response rating, Corn [11, 17]: 0; Plant response rating, Corn [11, 18]: 30; Plant response rating, Foxtail, Giant [12, 17]: 90; Plant response rating, Foxtail, Giant [12, 18]: 90; Plant response rating, Pigweed [13, 17]: 0; Plant response rating, Pigweed [13, 18]: 20; Plant response rating, Ragweed [14, 17]: 0; Plant response rating, Ragweed [14, 18]: 20; Plant response rating, Ryegrass, Italian [15, 17]: 0; Plant response rating, Ryegrass, Italian [15, 18]: 60; Plant response rating, Wheat [16, 17]: 0; Plant response rating, Wheat [16, 18]: 50 |
| O=C1NCC(c2ccc(OC(F)F)cc2)C1C(=O)Nc1cccc(F)c1F (stereo not shown) [Compound 561] | 70 | 90 | 90 | 90 | 90 | 90 | 80 | 90 | 80 | 80 | 0 | 40 | 60 | 60 | 70 | 80 | 90 | 90 | 50 | 70 | Plant response rating, Corn [11, 17]: 10; Plant response rating, Corn [11, 18]: 60; Plant response rating, Foxtail, Giant [12, 17]: 90; Plant response rating, Foxtail, Giant [12, 18]: 90; Plant response rating, Pigweed [13, 17]: 60; Plant response rating, Pigweed [13, 18]: 70; Plant response rating, Ragweed [14, 17]: 20; Plant response rating, Ragweed [14, 18]: 40; Plant response rating, Ryegrass, Italian [15, 17]: 20; Plant response rating, Ryegrass, Italian [15, 18]: 60; Plant response rating, Wheat [16, 17]: 30; Plant response rating, Wheat [16, 18]: 70 |
| CN1CC(c2ccc(OC(F)F)cc2)C(C(=O)Nc2cccc(F)c2F)C1=O (stereo not shown) [Compound 562] | 70 | 90 | 90 | 90 | 90 | 90 | 90 | 90 | 70 | 80 | 60 | 90 | 60 | 70 | 70 | 80 | 90 | 90 | 60 | 70 | Plant response rating, Corn [11, 17]: 40; Plant response rating, Corn [11, 18]: 80; Plant response rating, Foxtail, Giant [12, 17]: 90; Plant response rating, Foxtail, Giant [12, 18]: 90; Plant response rating, Pigweed [13, 17]: 70; Plant response rating, Pigweed [13, 18]: 80; Plant response rating, Ragweed [14, 17]: 50; Plant response rating, Ragweed [14, 18]: 60; Plant response rating, Ryegrass, Italian [15, 17]: 70; Plant response rating, Ryegrass, Italian [15, 18]: 80; Plant response rating, Wheat [16, 17]: 50; Plant response rating, Wheat [16, 18]: 80 |
| CN1CC(c2ccc(Br)cc2)C(C(=O)Nc2ccccc2F)C1=O (stereo not shown) [Compound 563] | 70 | 80 | 90 | 100 | 90 | 100 | 70 | 80 | 50 | 60 | 0 | 0 | 70 | 70 | 70 | 80 | 90 | 90 | 40 | 50 | Plant response rating, Corn [11, 17]: 20; Plant response rating, Corn [11, 18]: 50; Plant response rating, Foxtail, Giant [12, 17]: 90; Plant response rating, Foxtail, Giant [12, 18]: 90; Plant response rating, Pigweed [13, 17]: 0; Plant response rating, Pigweed [13, 18]: 40; Plant response rating, Ragweed [14, 17]: 0; Plant response rating, Ragweed [14, 18]: 50; Plant response rating, Ryegrass, Italian [15, 17]: 40; Plant response rating, Ryegrass, Italian [15, 18]: 40; Plant response rating, Wheat [16, 17]: 20; Plant response rating, Wheat [16, 18]: 40 |
| CN1CC(c2ccc(Br)cc2)C(C(=O)Nc2cccc(F)c2F)C1=O (stereo not shown) [Compound 564] | 80 | 90 | 90 | 100 | 90 | 100 | 90 | 90 | 80 | 90 | 40 | 90 | 70 | 70 | 80 | 80 | 90 | 90 | 40 | 70 | Plant response rating, Corn [11, 17]: 70; Plant response rating, Corn [11, 18]: 80; Plant response rating, Foxtail, Giant [12, 17]: 90; Plant response rating, Foxtail, Giant [12, 18]: 90; Plant response rating, Pigweed [13, 17]: 40; Plant response rating, Pigweed [13, 18]: 70; Plant response rating, Ragweed [14, 17]: 50; Plant response rating, Ragweed [14, 18]: 60; Plant response rating, Ryegrass, Italian [15, 17]: 60; Plant response rating, Ryegrass, Italian [15, 18]: 70; Plant response rating, Wheat [16, 17]: 40; Plant response rating, Wheat [16, 18]: 60 |
